This passage reports inhibition, Activity and IC50 results from ChEMBL document CHEMBL1141700, “Discovery of the catechol structural moiety as a Stat3 SH2 domain inhibitor by virtual screening” (Bioorg Med Chem Lett, 2008).

As a reminder, the inhibition is the drop in the measured response relative to a control, in per cent. Higher therefore signals a strong effect. For orientation: IC50 means the point on the concentration scale where inhibition reaches its midpoint. A low value points to greater potency in that assay.

Experiment [1] deals with T1, Signal transducer and activator of transcription 3 (Homo sapiens, UniProt P40763). Put plainly: Inhibition of Stat3 binding to DNA in human U266 whole cell lysate at 100 ug/ml by ELISA. It counts as cell-free. Conditions: U-266. A general note: An ELISA detects its analyte on a solid surface through an enzyme-linked reagent.
Experiment [2] deals with T1, Signal transducer and activator of transcription 3. Briefly: Inhibition of Stat3 phosphorylation in human U266 whole cell lysate by Western blotting. It counts as cell-based. The settings on record: U-266. On the technique in general: A western blot detects proteins with antibodies after separation by electrophoresis.
Experiment [3] shares this target. Put plainly: Inhibition of Stat3 binding to DNA in human U266 whole cell lysate by ELISA. Type of experiment: cell-free, U-266.
In experiment [4] the target is Signal transducer and activator of transcription 3 (Mus musculus) (UniProt P42227). Put plainly: Displacement of pTyr705 from flag-tagged mouse Stat3 SH2 domain expressed in HEK293 cells up to 200 uM by fluorescence polarization. A general note: Fluorescence polarisation rises when a labelled molecule tumbles more slowly, as on binding a larger partner.

SMILES strings stand for the structures. Active and inactive are the calls of the source. The rule behind the calls is not given here.

T1 sequence (P40763 whole entry): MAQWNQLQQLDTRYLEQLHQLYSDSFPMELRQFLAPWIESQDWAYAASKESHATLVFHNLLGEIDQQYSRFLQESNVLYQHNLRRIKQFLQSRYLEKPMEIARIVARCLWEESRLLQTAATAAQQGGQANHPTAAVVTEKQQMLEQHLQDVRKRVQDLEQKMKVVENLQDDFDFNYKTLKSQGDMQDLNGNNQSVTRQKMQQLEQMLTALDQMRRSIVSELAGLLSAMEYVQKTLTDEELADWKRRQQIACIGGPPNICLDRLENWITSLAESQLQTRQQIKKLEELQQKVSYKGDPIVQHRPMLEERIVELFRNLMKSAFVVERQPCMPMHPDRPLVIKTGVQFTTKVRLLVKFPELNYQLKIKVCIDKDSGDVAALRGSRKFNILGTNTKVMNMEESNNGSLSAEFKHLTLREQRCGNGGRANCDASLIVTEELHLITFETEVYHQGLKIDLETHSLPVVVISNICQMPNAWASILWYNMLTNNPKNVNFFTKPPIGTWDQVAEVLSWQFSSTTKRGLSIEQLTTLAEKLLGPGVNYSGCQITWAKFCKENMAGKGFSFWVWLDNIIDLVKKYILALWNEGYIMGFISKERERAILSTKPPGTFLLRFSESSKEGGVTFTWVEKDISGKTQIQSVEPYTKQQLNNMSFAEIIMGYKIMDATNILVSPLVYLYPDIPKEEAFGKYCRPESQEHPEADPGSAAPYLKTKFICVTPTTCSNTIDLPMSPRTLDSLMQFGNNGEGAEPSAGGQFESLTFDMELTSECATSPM
Signal transducer and activator of transcription 3 (Mus musculus), sequence (P42227 whole entry, the tested form may be a part): as the sequence (P40763 whole entry) above, with E760D counted along it

Turning to `Oc1cccc(-c2nc3ccccc3s2)c1O`, the inhibition in experiment [1] was determined as 56%.
`O=C(Cc1ccc2c(c1)OCO2)NCCc1ccc(O)c(O)c1` gave an inhibition in experiment [1] of 40%. The result in experiment [2] was Active. Besides, the IC50 in experiment [3] stood at 357 µM. The result in experiment [4] was inactive.
With `Oc1ccc(CC/N=C/c2c(O)ccc3ccccc23)cc1O`, the inhibition in experiment [1] is 50%.
Turning to `O=C(O)c1ccccc1/N=C\c1ccc(O)c(O)c1`, the inhibition in experiment [1] is 8%.
With `Cc1oc(C)c2c(=O)cc(-c3ccc(O)c(O)c3)cc(O)c12`, in experiment [3], the IC50 was 106 µM.
As for `Oc1ccc(CC/N=C/c2cccc(O)c2O)cc1O`, the inhibition in experiment [1] was 51%.
The molecule `O=C(c1ccc(O)c(O)c1)c1cnc(NCc2ccc(F)cc2)s1` gave an inhibition in experiment [1] of 57%.
